Experimental data as given in US12414937B2, “Local and regional anesthesia and analgesia” (UNIVERSITY OF LOUISVILLE RESEARCH FOUNDATION, INC., priority 2015, dated 2025).

How the values were obtained:
small sensory axons = assay: Nociceptive cutaneous trunk muscle reflex (CTMR) EMG on electrical stimulation of a treated sensory nerve; type: in vivo, rats; details: sensory nerve treated with Atip 20 ul, 200 uM
Experimental: To address this, a different model system was used the cutaneous trunk muscle reflex (CTMR), which was previously developed and validated for use in anesthesiology and pain experimentation (4,5).
With reference to FIG. 3B, the effects of Atip on nociceptor sensory conduction are assessed using nociceptive CTM reflex as readout.
The CTMR in rats appears as a puckering or flicking of the back skin and is elicited only by noxious natural stimulation or by electrical stimulation of sufficient strength to recruit A-delta and C-fibers (4,6,7). Activation of only very few of these sensory axons is sufficient to elicit a CTMR, making the system a “natural amplifier” for small-diameter afferent input and resulting in reflex output detectible at the EMG and behavioral level (4,8).

[1] = test system: wild type, α2AAR knockout and α2CAR knock out mice; assay: Paw withdrawal in response to strong pinch after subcutaneous plantar injection; type: in vivo; details: 5 mM subcutaneously in right plantar paw
Experimental: Studies testing the effect of Atip were also conducted in α2 receptor subunit knock-out mice. α2AAR knockout and α2CAR knock out mice were used in the study. Animals were injected with 5 mM Atip subcutaneously in their right plantar paw, and vehicle into the left plantar paw. They then received strong pinch to the paw skin and pads on each foot. Right and left paw withdrawal in response to the pinch was assessed.

[2] = test system: motor axons (Ventral Root); assay: Compound action potential (CAP) conduction block, motor CAP recorded at ventral root, drug applied to lumbar plexus exposure; type: in vivo, rats; details: Atip applied to the nerve; FIGS. 2A-3B together
Text: (§1) A surgical preparation was used to determine whether Atip acts differently on sensory or motor neurons. The procedures used were similar to those described in Petruska et al., 1998 (Experimental Brain Research 121:379-390). Briefly, adult rats received general anesthesia with ketamine/xylazine. The jugular vein, carotid artery, and trachea were intubated for the purposes of administering supplementary anesthesia, monitoring of blood pressure, and measuring end-expired CO2, respectively. Normal body temperature was maintained within 1° C. via a water-based thermal blanket. […]
(§2) Compound action potentials (CAPs) were generated by stimulating the sciatic nerve branches. The CAPs propagated centrally through the lumbar plexus to the dorsal and ventral roots where the sensory and motor CAPs (sCAP and mCAP) were detected with the recording electrodes. Effectiveness of conduction block was assessed by measuring the properties of the CAPs (peak and area) conducted through the lumbar plexus exposure and treated with drug compared to the CAPs in the control condition (vehicle or saline in the lumbar plexus exposure).
(§3) With reference to FIG. 2B, activity in response to electrical stimulation of the peroneal nerve was recorded from sensory and motor fascicles (20-30 sweeps averaged per time point). […]

[3] = test system: sensory axons (Dorsal Root); assay: Compound action potential (CAP) conduction block, sensory CAP recorded at dorsal root, drug applied to lumbar plexus exposure; type: in vivo, rats
Text: as §1, §2, §3

[4] = test system: injury-sensitized dissociated rat sensory neurons; assay: Patch-clamp electrophysiology, action potentials induced by depolarizing current; type: cell-based
Experimental: Studies were conducted to examine the effect of Atip administration on action potentials induced by depolarizing current. Electrophysiology in injury-sensitized dissociated rat sensory neurons was recorded with patch-clamp, using methods previously described (5).

hTCEpi cells = assay: Cytotoxicity, Alamar Blue cell viability assay; type: cell-based, human; details: 24 or 48 hours incubation
Experimental: Cytotoxicity studies were performed using Human telomerase-immortalized human corneal epithelial cells (hTCEpi cells—obtained through Genon Corp., Menlo Park, CA, USA). The cells were plated at a density of 30,000 cells per well of a 96-well dish in growth media (Defined Keratinocyte Media with growth supplement, Invitrogen, Grand Island, NY, USA). After 24 hours of recovery, cells were treated with either growth media alone or growth media supplemented with 0.5% DMSO (vehicle), the indicated concentration of ATIP, or 0.5% proparacaine (Akorn, Forest Lake, IL). Cells were incubated for 24 or 48 hours at 37° C. in 5% CO2. Cell viability was assessed using an Alamar Blue Assay (Thermo Fisher, Waltham, MA, USA).
With reference to FIGS. 5A and 5B, data are plotted as the fraction of viable cells compared to growth media alone+/−S.E.M (n=3).

sensory axons = assay: Sensory CAP recordings with IV-administered Atip after Dex; type: in vivo, rats; details: doses indicated for use as α-2 AR antagonist
[5] = test system: isolated human DRG Neurons; assay: Live cell calcium imaging with electric field stimulation; type: cell-based
Experimental: Live cell calcium imaging studies were conducted on isolated human DRG Neurons from post mortem donors. Cells were loaded with 3 uM Fluo 8-AM (AAT Bioquest 21081) containing 0.1% Pluronic F-127 (Sigma P2443) for 20 min. The extracellular solution contained in mM (Sigma): 145 NaCl (S3014), 3 KCl (P3911), 2 CaCl2) (C3881), 1 MgCl2 (M9272), 10 HEPES (H3375), 10 glucose (G5767) adjusted to pH 7.4 with NaOH (72068). Fluo-8-loaded cells were excited at 480 nm and emission was collected at 520 nm with a pcoEDGE sCMOS camera (PCO) mounted on an inverted microscope (Olympus IX71).
For Electric Field stimulation (EFs), images were acquired at 100 Hz for 2.5 sec applying simultaneously a train of 10 pulses (5 Hz, 10 ms). After the recording of the baseline profile at Low (1.5 to 2.0 V) and High (2.5 to 3.0 V) Voltage, a pre incubation of […] of the inhibitor is applied to the well before repeating the EFs procedure (Atip 100 uM, Atip 300 uM, Lidocaine 200 uM (Sigma L7757)). The cells that had less than 50% of the pulse response vs the baseline condition was considered inhibited. A washout of 10 min by perfusion was performed after the last EFs procedure.
Lidocaine was first prepared in stock solution using Ethanol (Sigma 459844), Atip was prepared in stock solution using DMSO (Sigma D8418). Image acquisition and data analysis were performed using MetaMorph software (Molecular Devices).
Neurons with less than 50% of the baseline response to electrical field stimulation were considered inhibited. 300 uM Atip blocked activity in 100% of the cells; 100 uM Atip achieved a 62% blockade.

pseudocholinesterase = target: T1, pseudocholinesterase (Homo sapiens, UniProt P06276); details: plasma; cited from earlier work
T1 construct: hydrolyzed at the ester linkage in plasma by pseudocholinesterase; host or cells: plasma
T1 sequence (P06276 29-602): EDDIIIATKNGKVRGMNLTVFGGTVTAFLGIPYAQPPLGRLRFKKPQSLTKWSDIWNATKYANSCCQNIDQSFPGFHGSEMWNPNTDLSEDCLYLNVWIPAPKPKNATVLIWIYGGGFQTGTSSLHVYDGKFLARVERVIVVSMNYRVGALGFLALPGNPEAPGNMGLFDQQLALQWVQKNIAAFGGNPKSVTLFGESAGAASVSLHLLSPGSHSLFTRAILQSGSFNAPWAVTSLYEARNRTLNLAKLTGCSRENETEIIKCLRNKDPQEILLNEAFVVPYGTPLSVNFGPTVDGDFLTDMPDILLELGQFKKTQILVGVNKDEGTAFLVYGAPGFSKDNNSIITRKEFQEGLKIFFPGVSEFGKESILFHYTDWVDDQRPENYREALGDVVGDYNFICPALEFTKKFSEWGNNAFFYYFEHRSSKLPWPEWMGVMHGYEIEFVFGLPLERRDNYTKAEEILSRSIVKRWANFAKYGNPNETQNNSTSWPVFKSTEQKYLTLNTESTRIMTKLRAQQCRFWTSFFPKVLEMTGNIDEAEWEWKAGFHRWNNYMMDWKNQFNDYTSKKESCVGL

CCC1(c2cnc[nH]2)Cc2ccccc2C1 [Atip, 4(5)-(2,3-dihydro-2-ethyl-1H-inden-2-yl)imidazole]
EMG of CTMR, nociceptor sensory conduction (small sensory axons): blocks activity in small sensory axons | nerve toxicity (return of EMG) (small sensory axons; not washed out): does not poison the nerve | withdrawal of the Atip-injected right paw on pinch ([1]; wild type mice): no withdrawal of the right paw | withdrawal of the Atip-injected right paw on pinch ([1]; α2AAR knockout mice): no withdrawal of the right paw | withdrawal of the Atip-injected right paw on pinch ([1]; α2CAR knock out mice): no withdrawal of the right paw | conduction in motor axons [2]: relative sparing of conduction | reversibility of conduction block (CAP peak and area) ([3]; 100 ul Atip undiluted clinical dose 5 mg/ml topically over the nerve, then wash-out): reversible | conduction in large and small sensory axons ([3]; Atip applied to the nerve, FIGS. 2A-3B together): strongly blocks conduction | action potentials induced by depolarizing current [4]: rapidly blocked | resting membrane potential [4]: does not alter the resting membrane potential | toxicity (fraction of viable cells compared to growth media alone) versus 0.5% proparacaine (hTCEpi cells): reduced toxicity | sensory conduction block by IV-administered Atip (sensory axons): does not itself block conduction | cells with blocked activity (less than 50% of baseline response to electrical field stimulation) ([5]; 100 uM): 62% | cells with blocked activity (less than 50% of baseline response to electrical field stimulation) ([5]; 300 uM): 100%

CCN(CC)CCOC(=O)c1ccc(N)cc1 [procaine]
rate of hydrolysis at the ester linkage, relative (pseudocholinesterase): about four times faster than tetracaine

CCN(CC)CC(=O)Nc1c(C)cccc1C [lidocaine, Lidocaine]
efficacy of blockade compared with Atip ([5]; 200 uM, therapeutic concentration): less efficacious than the highest tested concentration of Atip, and similar to the lowest concentration of Atip tested

CCN(CC)CCOC(=O)c1ccc(N)cc1Cl [2-chloroprocaine]
rate of hydrolysis at the ester linkage, relative (pseudocholinesterase): about four times faster than procaine
